Laboratory results: ChEMBL document CHEMBL1833960, “Identification of 5,6-substituted 4-aminothieno[2,3-d]pyrimidines as LIMK1 inhibitors” (Bioorg Med Chem Lett, 2011)
pIC50: −log10 of the molar value.

Columns and labels:
LIM domain kinase 1 [1] = biological target: T1, LIM domain kinase 1 (Homo sapiens, UniProt P53667); assay: Inhibition of LIMK1 using cofilin-2 as substrate after 60 mins by Kinase-Glo assay
LIM domain kinase 1 [2] = biological target: T1, LIM domain kinase 1; assay: Inhibition of LIMK1 using cofilin-2 as substrate after 60 mins by TR-FRET assay

T1 sequence (P53667 whole entry, the tested form may be a part): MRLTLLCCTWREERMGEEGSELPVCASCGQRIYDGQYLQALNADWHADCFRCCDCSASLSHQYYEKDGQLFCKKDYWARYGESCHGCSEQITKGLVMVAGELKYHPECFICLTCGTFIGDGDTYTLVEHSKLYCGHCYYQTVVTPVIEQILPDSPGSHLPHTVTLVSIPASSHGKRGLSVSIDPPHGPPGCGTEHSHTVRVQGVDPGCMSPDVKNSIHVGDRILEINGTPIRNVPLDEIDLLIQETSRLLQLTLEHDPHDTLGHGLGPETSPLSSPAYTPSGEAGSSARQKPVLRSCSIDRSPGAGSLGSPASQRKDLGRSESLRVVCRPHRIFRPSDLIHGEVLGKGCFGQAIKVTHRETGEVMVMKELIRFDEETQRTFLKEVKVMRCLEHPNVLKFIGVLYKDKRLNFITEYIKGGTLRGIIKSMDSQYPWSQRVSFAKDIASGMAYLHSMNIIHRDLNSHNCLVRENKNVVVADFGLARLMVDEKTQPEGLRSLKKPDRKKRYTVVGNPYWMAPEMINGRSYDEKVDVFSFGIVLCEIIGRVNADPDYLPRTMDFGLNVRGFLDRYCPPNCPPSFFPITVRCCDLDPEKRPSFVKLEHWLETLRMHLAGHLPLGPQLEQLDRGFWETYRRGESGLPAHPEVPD

| Compound | pIC50 (LIM domain kinase 1 [1]) | pIC50 (LIM domain kinase 1 [2]) |
| --- | --- | --- |
| CN(C)c1ncnc2sc3c(c12)CCCC3 | < 4.00 | < 4.00 |
| c1ccc(CCNc2ncnc3sc4c(c23)CCCC4)cc1 | < 4.00 | < 4.00 |
| Cc1sc2ncnc(N)c2c1C | 5.36 | 5.36 |
| Nc1nc(-c2ccccc2)nc2sc3c(c12)CCCC3 | < 4.00 | < 4.00 |
| Nc1ncnc2c1sc1ccccc12 | 5.15 |  |
| Cn1c2ccccc2c2ncnc(N)c21 | 5.40 |  |
| Nc1ncnc2c1sc1cc(-c3ccccc3)ccc12 | 6.52 |  |
| COc1ccc(-c2sc3ncnc(N)c3c2C)cc1OC | 5.49 | 5.49 |
| CCOC(=O)C1CCc2c(sc3ncnc(N)c23)C1 (stereo not given) | 5.64 | 5.64 |
| NC(=O)C1CCc2c(sc3ncnc(N)c23)C1 (stereo not given) | 5.04 | 5.04 |
| Nc1ncnc2sc3c(c12)CCN(Cc1ccccc1)C3 | 6.18 | 6.18 |
| Nc1ncnc2sc3c(c12)CCOC3 | 5.46 | 5.46 |
| Nc1ncnc2sc3c(c12)CCC(c1ccccc1)C3 (stereo not given) | < 4.70 | < 4.70 |
| Cc1c(-c2ccccc2)sc2ncnc(N)c12 | 4.77 | 4.77 |
| Nc1ncnc2sc3c(c12)CCC(C(=O)O)C3 (stereo not given) | < 4.70 | < 4.70 |
| Nc1ncnc2sc3c(c12)CCC(C(=O)NCc1ccccc1)C3 (stereo not given) | 5.07 | 5.07 |
| Nc1ncnc2sc3c(c12)CCCC3 | 5.40 | 5.40 |
| Nc1ncnc2sc3c(c12)CCC3 | 5.28 | 5.28 |
| Nc1ncnc2sc3c(c12)CCCCC3 | 5.60 | 5.60 |
| Nc1nc(=S)[nH]c2sc3c(c12)CCCC3 | < 4.00 | < 4.00 |
| CSc1nc(N)c2c3c(sc2n1)CCCCC3 | < 4.00 | < 4.00 |
| CNc1ncnc2sc3c(c12)CCCC3 | < 4.00 | < 4.00 |
| NCCNc1ncnc2sc3c(c12)CCCC3 | < 4.00 | < 4.00 |
| Nc1ncnc2sc3c(c12)CC1CC3C1 | 5.74 | 5.74 |
| CC1CCc2c(sc3ncnc(N)c23)C1 (stereo not given) | 4.74 | 4.74 |
| CC1(C)CCc2sc3ncnc(N)c3c21 | 5.68 | 5.68 |
| CC1CCCc2sc3ncnc(N)c3c21 (stereo not given) | 5.57 | 5.57 |
| NC(=O)c1sc2ncccc2c1N | 4.43 |  |
| CSc1nc(N)c2c3c(sc2n1)CCCC3 | < 4.00 | < 4.00 |

Other lines, results leading:

| pIC50 (LIM domain kinase 1 [1]) | pIC50 (LIM domain kinase 1 [2]) | Compound |
| --- | --- | --- |
| < 4.00 | < 4.00 | COc1ccc(Nc2ncnc3sc4c(c23)CCCC4)cc1 |
| < 4.00 | < 4.00 | OCCNc1ncnc2sc3c(c12)CCCC3 |
| 4.90 | 4.90 | CC1(C)Cc2c(sc3ncnc(N)c23)CO1 |
| 6.59 |  | Cn1c2cc(-c3ccccc3)ccc2c2ncnc(N)c21 |
| 4.96 | 4.96 | Nc1ncnc2sc3c(c12)Cc1ccccc1-3 |
| 5.02 | 5.02 | Nc1ncnc2sc3c(c12)CCC(C(=O)N1CCOCC1)C3 (stereo not given) |
| 5.55 | 5.55 | CC1(C)CCc2c(sc3ncnc(N)c23)C1 |
| 5.37 | 5.37 | Nc1ncnc2sc3c(c12)CCc1ccccc1-3 |
| < 4.00 | < 4.00 | Cc1nc(N)c2c3c(sc2n1)CCCC3 |
| < 4.00 | < 4.00 | Nc1nc(S)nc2sc3c(c12)CCCCC3 |
| < 4.00 | < 4.00 | CSc1nc(N)c2c3c(sc2n1)CCC3 |
| < 4.00 | < 4.00 | Nc1nc(SCC(=O)O)nc2sc3c(c12)CCCC3 |
| < 4.00 | < 4.00 | Nc1nc(-c2cccs2)nc2sc3c(c12)CCCC3 |
| < 4.00 | < 4.00 | CC(Nc1ncnc2sc3c(c12)CCCC3)c1ccccc1 (stereo not given) |
| < 4.00 | < 4.00 | c1nc(N2CCCCC2)c2c3c(sc2n1)CCCC3 |
| 4.48 |  | NC(=O)c1sc2ccccc2c1N |
| 5.05 |  | Nc1ncnc2c1sc1ncccc12 |
